Experimental data taken from the supplement of paper PMC10307832.

What was measured:
Assay in all cases: relative viability (nuclei count vs DMSO), 5 days (fraction); higher = more cells survive
Selisistat + Foretinib = compound: C1CC(C2=C(C1)C3=C(N2)C=CC(=C3)Cl)C(=O)N [Selisistat] + COc1cc2c(Oc3ccc(NC(=O)C4(C(=O)Nc5ccc(F)cc5)CC4)cc3F)ccnc2cc1OCCCN1CCOCC1 [Foretinib] (partner 0.25 µM)
Method in brief: (§1)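 Five library-drug doses in √10 steps were combined with a fixed anchor-drug dose, or a single drug was given alone, by pin tool to lung cancer cell lines in 1536-well plates the day after seeding. Nuclei were stained and counted after 5 days. Relative viability is the nuclei count in treated wells over that in vehicle wells, taken as the median of duplicate plates.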

Serdemetan + Trametinib = compound: c1ccc2c(CCNc3ccc(Nc4ccncc4)cc3)c[nH]c2c1 [Serdemetan] + CC(=O)Nc1cccc(-n2c(=O)n(C3CC3)c(=O)c3c(Nc4ccc(I)cc4F)n(C)c(=O)c(C)c32)c1 [Trametinib] (partner 0.02 µM)
Method in brief: as §1

Selisistat + Vorinostat = compound: C1CC(C2=C(C1)C3=C(N2)C=CC(=C3)Cl)C(=O)N [Selisistat] + O=C(CCCCCCC(=O)Nc1ccccc1)NO [Vorinostat] (partner 1 µM)
Method in brief: as §1

Serdemetan + Navitoclax = compound: c1ccc2c(CCNc3ccc(Nc4ccncc4)cc3)c[nH]c2c1 [Serdemetan] + CC1(C)CCC(c2ccc(Cl)cc2)=C(CN2CCN(c3ccc(C(=O)NS(=O)(=O)c4ccc(N[C@H](CCN5CCOCC5)CSc5ccccc5)c(S(=O)(=O)C(F)(F)F)c4)cc3)CC2)C1 [Navitoclax] (partner 0.5 µM)
Method in brief: as §1

| Cell Line | relative viability (Selisistat + Foretinib; first compound 0.4 µM) | relative viability (Selisistat + Foretinib; first compound 1.265 µM) | relative viability (Selisistat + Foretinib; first compound 4 µM) | relative viability (Selisistat + Foretinib; first compound 12.65 µM) | relative viability (Selisistat + Foretinib; first compound 40 µM) | relative viability (Serdemetan + Trametinib; first compound 0.04 µM) | relative viability (Serdemetan + Trametinib; first compound 0.1265 µM) | relative viability (Serdemetan + Trametinib; first compound 0.4 µM) | relative viability (Serdemetan + Trametinib; first compound 1.265 µM) | relative viability (Serdemetan + Trametinib; first compound 4 µM) | relative viability (Selisistat + Vorinostat; first compound 0.4 µM) | relative viability (Selisistat + Vorinostat; first compound 1.265 µM) | relative viability (Selisistat + Vorinostat; first compound 4 µM) | relative viability (Selisistat + Vorinostat; first compound 12.65 µM) | relative viability (Selisistat + Vorinostat; first compound 40 µM) | relative viability (Serdemetan + Navitoclax; first compound 0.04 µM) | relative viability (Serdemetan + Navitoclax; first compound 0.4 µM) | relative viability (Serdemetan + Navitoclax; first compound 1.265 µM) | relative viability (Serdemetan + Navitoclax; first compound 4 µM) | relative viability (Serdemetan + Navitoclax; first compound 0.1265 µM) |
| --- | --- | --- | --- | --- | --- | --- | --- | --- | --- | --- | --- | --- | --- | --- | --- | --- | --- | --- | --- | --- |
| NCI-H1734 | 0.956 | 0.822 | 0.868 | 0.889 | 0.815 | 0.555 | 0.358 | 0.246 | 0.147 | 0.161 | 0.871 | 0.68 | 0.783 | 0.843 | 0.85 | 0.68 | 0.202 | 0.108 | 0.188 |  |
| NCI-H1755 | 0.985 | 1.04 | 0.948 | 0.923 | 0.977 | 0.762 | 0.703 | 0.744 | 0.572 | 0.474 | 0.831 | 0.903 | 0.975 | 0.766 | 0.928 | 0.973 | 0.867 | 0.527 | 0.448 | 0.976 |
| NCI-H1793 | 0.386 | 0.681 |  | 0.724 | 0.528 | 0.447 | 0.375 | 0.346 | 0.227 | 0.267 | 0.899 | 0.679 |  | 0.88 | 0.781 | 0.337 | 0.39 | 0.349 | 0.263 | 0.408 |
| NCI-H1915 | 1.11 | 1.05 | 1.14 | 1.06 | 1.18 | 0.3 | 0.309 | 0.286 | 0.257 | 0.242 | 0.494 | 0.538 | 0.661 | 0.538 | 0.641 | 0.815 | 0.78 | 0.372 | 0.687 | 0.759 |
| NCI-H1944 | 0.948 | 0.854 |  | 0.857 | 0.808 | 0.424 | 0.39 | 0.332 | 0.274 | 0.278 | 0.563 | 0.526 | 0.51 | 0.547 | 0.593 | 1.07 | 0.978 |  | 0.376 | 1.04 |
| NCI-H1975 | 0.983 | 0.84 | 0.896 | 0.815 | 0.706 | 0.403 | 0.381 | 0.331 | 0.305 | 0.371 | 0.734 | 0.731 | 0.752 | 0.687 | 0.691 | 1.01 | 1.2 | 1.05 | 1.24 | 0.998 |
| NCI-H1993 | 0.745 | 0.798 | 0.696 | 0.949 | 0.707 | 0.549 | 0.516 | 0.413 | 0.599 | 0.494 | 0.969 | 0.782 |  | 0.848 | 0.949 | 0.952 | 0.78 |  | 0.875 | 0.92 |
| NCI-H2009 | 1.33 | 1.17 |  | 1.22 | 1.17 | 0.248 | 0.284 | 0.243 | 0.266 | 0.281 | 0.774 | 0.786 | 0.77 | 0.741 | 0.793 | 1.11 | 1.17 | 1.06 | 1.01 | 1.12 |
| NCI-H2023 | 0.879 | 0.81 | 0.966 | 0.873 | 0.904 | 0.616 | 0.538 | 0.522 | 0.223 | 0.298 | 0.662 | 0.786 | 0.784 | 0.674 | 0.853 | 0.929 | 0.99 | 0.682 | 0.344 | 1.05 |
| NCI-H2085 | 0.971 | 0.98 | 0.873 | 0.881 | 0.884 | 0.467 | 0.552 | 0.289 | 0.264 | 0.301 | 0.908 | 0.855 | 0.714 | 0.828 | 0.84 | 1.16 | 1.04 | 0.815 | 0.685 | 1.01 |
| NCI-H2087 | 1.09 | 1.12 |  | 1.01 | 1.05 | 0.223 | 0.185 | 0.191 | 0.168 | 0.169 | 0.897 | 0.667 |  | 0.422 | 0.76 | 1.05 | 0.715 | 0.467 | 0.64 | 1 |
| NCI-H2126 | 1.27 | 1.16 | 1.17 | 1.32 | 1.16 | 0.59 | 0.557 | 0.577 | 0.512 | 0.604 | 0.865 | 0.792 | 0.691 | 0.861 | 0.845 | 0.841 | 0.795 | 0.704 | 0.825 | 0.869 |
| NCI-H2170 | 1.11 | 1 | 0.943 | 1.03 | 1.08 | 0.912 | 0.988 | 0.87 | 0.9 | 0.944 | 0.868 | 0.8 | 0.845 | 0.917 | 0.964 | 0.591 | 0.52 | 0.554 | 0.601 | 0.705 |
| NCI-H2228 | 0.979 | 0.931 | 0.685 | 0.843 | 0.916 | 0.564 | 0.523 | 0.327 | 0.115 | 0.172 | 0.724 | 0.5 | 1 | 0.725 | 1.08 | 0.878 | 0.86 | 0.34 | 0.199 | 0.782 |
| NCI-H2347 | 0.918 | 1.04 |  | 1.06 | 0.989 | 0.286 | 0.253 | 0.289 | 0.259 | 0.25 | 0.478 | 0.484 |  | 0.666 | 0.772 | 0.737 | 0.712 | 0.624 | 0.374 | 0.779 |
| NCI-H2405 | 1.06 | 1.09 | 1.07 | 1.06 | 1.02 | 0.709 | 0.655 | 0.64 | 0.587 | 0.558 | 1.07 | 1.19 |  | 0.975 | 0.927 | 0.813 | 1.01 | 0.921 | 0.721 | 1.03 |
| NCI-H3122 | 0.996 | 0.942 | 0.881 | 0.97 | 1.03 | 0.246 | 0.238 | 0.252 | 0.245 | 0.206 | 0.977 | 0.919 |  | 1.09 | 1.34 | 0.975 | 1 |  | 1.04 | 0.951 |
